Measured values: PubChem BioAssay (NCI)
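These data come from cells grown in 96-well plates and exposed to compound for 48 hours at five concentrations. Definition used: TGI = concentration required for complete inhibition of growth.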

Assays:
Experiment in all cases: NCI-60 cell line screen, 48 h
A549 NSCLC = tested on: A549 NSCLC
U251 CNS = tested on: U251 CNS
EKVX NSCLC = tested on: EKVX NSCLC
RPMI-8226 leukemia = tested on: RPMI-8226 leukemia
CAKI-1 renal = tested on: CAKI-1 renal
OVCAR-8 ovarian = tested on: OVCAR-8 ovarian
BT-549 breast = tested on: BT-549 breast
NCI-H460 lung = tested on: NCI-H460 lung
RXF 393 renal = tested on: RXF 393 renal
ACHN renal = tested on: ACHN renal
IGROV1 ovarian = tested on: IGROV1 ovarian
SNB-19 CNS = tested on: SNB-19 CNS
UACC-62 melanoma = tested on: UACC-62 melanoma
SK-MEL-28 melanoma = tested on: SK-MEL-28 melanoma
K-562 leukemia = tested on: K-562 leukemia
SF-295 CNS = tested on: SF-295 CNS
MDA-N = tested on: MDA-N
SF-268 CNS = tested on: SF-268 CNS
MOLT-4 leukemia = tested on: MOLT-4 leukemia
MALME-3M melanoma = tested on: MALME-3M melanoma
MDA-MB-435 = tested on: MDA-MB-435
SNB-75 CNS = tested on: SNB-75 CNS
KM12 colon = tested on: KM12 colon
OVCAR-4 ovarian = tested on: OVCAR-4 ovarian
T-47D breast = tested on: T-47D breast
SN12C renal = tested on: SN12C renal
OVCAR-3 ovarian = tested on: OVCAR-3 ovarian
SK-MEL-5 melanoma = tested on: SK-MEL-5 melanoma
UACC-257 melanoma = tested on: UACC-257 melanoma
TK-10 renal = tested on: TK-10 renal
SR leukemia = tested on: SR leukemia
NCI-H23 lung = tested on: NCI-H23 lung
UO-31 renal = tested on: UO-31 renal
HL-60(TB) leukemia = tested on: HL-60(TB) leukemia
COLO 205 colon = tested on: COLO 205 colon
HCT-116 colon = tested on: HCT-116 colon
HOP-62 NSCLC = tested on: HOP-62 NSCLC
HT29 colon = tested on: HT29 colon
M14 melanoma = tested on: M14 melanoma
MDA-MB-231 breast = tested on: MDA-MB-231 breast
HS 578T breast = tested on: HS 578T breast
MCF7 breast = tested on: MCF7 breast
SK-MEL-2 melanoma = tested on: SK-MEL-2 melanoma
LOX IMVI melanoma = tested on: LOX IMVI melanoma
PC-3 prostate = tested on: PC-3 prostate
OVCAR-5 ovarian = tested on: OVCAR-5 ovarian
786-0 renal = tested on: 786-0 renal
A498 renal = tested on: A498 renal
CCRF-CEM leukemia = tested on: CCRF-CEM leukemia
HOP-92 NSCLC = tested on: HOP-92 NSCLC
NCI-H522 lung = tested on: NCI-H522 lung
DU-145 prostate = tested on: DU-145 prostate
NCI/ADR-RES ovarian = tested on: NCI/ADR-RES ovarian
SK-OV-3 ovarian = tested on: SK-OV-3 ovarian
SW-620 colon = tested on: SW-620 colon
HCT-15 colon = tested on: HCT-15 colon
HCC-2998 colon = tested on: HCC-2998 colon
SF-539 CNS = tested on: SF-539 CNS
NCI-H226 lung = tested on: NCI-H226 lung

With C[N+](C)(C)c1ncnc2c1ncn2C1CCCCO1 (centres undefined) the TGI (A549 NSCLC) was > 100 µM, the TGI (U251 CNS) was > 100 µM and the TGI (EKVX NSCLC) was > 100 µM. For the same compound, the TGI (RPMI-8226 leukemia) was > 100 µM, the TGI (CAKI-1 renal) was > 100 µM and the TGI (OVCAR-8 ovarian) was > 100 µM. For the same compound, the TGI (BT-549 breast) was > 100 µM, the TGI (NCI-H460 lung) was > 100 µM and the TGI (RXF 393 renal) was > 100 µM. For the same compound, the TGI (ACHN renal) was > 100 µM, the TGI (IGROV1 ovarian) was > 100 µM and the TGI (SNB-19 CNS) was > 100 µM. For the same compound, the TGI (UACC-62 melanoma) was > 100 µM, the TGI (SK-MEL-28 melanoma) was > 100 µM and the TGI (K-562 leukemia) was > 100 µM. For the same compound, the TGI (SF-295 CNS) was > 100 µM, the TGI (MDA-N) was > 100 µM and the TGI (SF-268 CNS) was > 100 µM. The TGI (MOLT-4 leukemia) was > 100 µM, the TGI (MALME-3M melanoma) was > 100 µM and the TGI (MDA-MB-435) was > 100 µM. For the same compound, the TGI (SNB-75 CNS) was > 100 µM, the TGI (KM12 colon) was > 100 µM and the TGI (OVCAR-4 ovarian) was > 100 µM. The TGI (T-47D breast) was > 100 µM, the TGI (SN12C renal) was > 100 µM and the TGI (OVCAR-3 ovarian) was > 100 µM. For the same compound, the TGI (SK-MEL-5 melanoma) was > 100 µM, the TGI (UACC-257 melanoma) was > 100 µM and the TGI (TK-10 renal) was > 100 µM. The TGI (SR leukemia) was > 100 µM, the TGI (NCI-H23 lung) was > 100 µM and the TGI (UO-31 renal) was > 100 µM. For the same compound, the TGI (HL-60(TB) leukemia) was > 100 µM, the TGI (COLO 205 colon) was > 100 µM and the TGI (HCT-116 colon) was > 100 µM. The TGI (HOP-62 NSCLC) was > 100 µM, the TGI (HT29 colon) was > 100 µM and the TGI (M14 melanoma) was > 100 µM. For the same compound, the TGI (MDA-MB-231 breast) was > 100 µM, the TGI (HS 578T breast) was > 100 µM and the TGI (MCF7 breast) was > 100 µM. The TGI (SK-MEL-2 melanoma) was > 100 µM, the TGI (LOX IMVI melanoma) was > 100 µM and the TGI (PC-3 prostate) was > 100 µM. The TGI (OVCAR-5 ovarian) was > 100 µM, the TGI (786-0 renal) was > 100 µM and the TGI (A498 renal) was > 100 µM. The TGI (CCRF-CEM leukemia) was > 100 µM, the TGI (HOP-92 NSCLC) was > 100 µM and the TGI (NCI-H522 lung) was > 100 µM. The TGI (DU-145 prostate) was > 100 µM, the TGI (NCI/ADR-RES ovarian) was > 100 µM and the TGI (SK-OV-3 ovarian) was > 100 µM. The TGI (SW-620 colon) was > 100 µM.

Cc1c(-c2ccccc2)c(C#N)c2nnc(C(N)=O)c(N)n12 was tested, and the TGI (A549 NSCLC) was > 100 µM, the TGI (U251 CNS) was > 100 µM and the TGI (EKVX NSCLC) was > 100 µM. The TGI (RPMI-8226 leukemia) was > 100 µM, the TGI (CAKI-1 renal) was > 100 µM and the TGI (OVCAR-8 ovarian) was > 100 µM. For the same compound, the TGI (BT-549 breast) was > 100 µM, the TGI (NCI-H460 lung) was > 100 µM and the TGI (RXF 393 renal) was > 100 µM. The TGI (ACHN renal) was > 100 µM, the TGI (IGROV1 ovarian) was > 100 µM and the TGI (SNB-19 CNS) was > 100 µM. For the same compound, the TGI (UACC-62 melanoma) was > 100 µM, the TGI (SK-MEL-28 melanoma) was > 100 µM and the TGI (K-562 leukemia) was > 100 µM. For the same compound, the TGI (SF-295 CNS) was > 100 µM, the TGI (MDA-N) was > 100 µM and the TGI (SF-268 CNS) was > 100 µM. For the same compound, the TGI (MOLT-4 leukemia) was > 100 µM, the TGI (MALME-3M melanoma) was > 100 µM and the TGI (MDA-MB-435) was > 100 µM. For the same compound, the TGI (KM12 colon) was > 100 µM, the TGI (OVCAR-4 ovarian) was > 100 µM and the TGI (T-47D breast) was > 100 µM. The TGI (SN12C renal) was > 100 µM, the TGI (OVCAR-3 ovarian) was > 100 µM and the TGI (SK-MEL-5 melanoma) was > 100 µM. The TGI (HCT-15 colon) was > 100 µM, the TGI (HCC-2998 colon) was > 100 µM and the TGI (UACC-257 melanoma) was > 100 µM. The TGI (TK-10 renal) was > 100 µM, the TGI (SR leukemia) was > 100 µM and the TGI (NCI-H23 lung) was > 100 µM. The TGI (UO-31 renal) was > 100 µM, the TGI (HL-60(TB) leukemia) was > 100 µM and the TGI (COLO 205 colon) was > 100 µM. For the same compound, the TGI (HCT-116 colon) was > 100 µM, the TGI (HOP-62 NSCLC) was > 100 µM and the TGI (SF-539 CNS) was > 100 µM. For the same compound, the TGI (HT29 colon) was > 100 µM, the TGI (M14 melanoma) was > 100 µM and the TGI (MDA-MB-231 breast) was > 100 µM. The TGI (HS 578T breast) was > 100 µM, the TGI (MCF7 breast) was > 100 µM and the TGI (SK-MEL-2 melanoma) was > 100 µM. The TGI (LOX IMVI melanoma) was > 100 µM, the TGI (PC-3 prostate) was > 100 µM and the TGI (OVCAR-5 ovarian) was > 100 µM. The TGI (786-0 renal) was > 100 µM, the TGI (A498 renal) was > 100 µM and the TGI (CCRF-CEM leukemia) was > 100 µM. For the same compound, the TGI (NCI-H522 lung) was > 100 µM, the TGI (DU-145 prostate) was > 100 µM and the TGI (NCI/ADR-RES ovarian) was > 100 µM. For the same compound, the TGI (SK-OV-3 ovarian) was > 100 µM and the TGI (SW-620 colon) was > 100 µM.

In the case of C=C1C(=O)O[C@H]2C[C@@]3(C)[C@H](O)CCC(=C)[C@@H]3[C@@H](OC(C)=O)[C@H]12, the TGI (A549 NSCLC) was 33.7 µM, the TGI (U251 CNS) was > 71.3 µM and the TGI (EKVX NSCLC) was 38.1 µM. It also gave a TGI (RPMI-8226 leukemia) of 68.7 µM, a TGI (CAKI-1 renal) of 3.23 µM and a TGI (OVCAR-8 ovarian) of 50.4 µM. The TGI (BT-549 breast) was 25 µM, the TGI (NCI-H460 lung) was 25.7 µM and the TGI (RXF 393 renal) was 14.7 µM. The TGI (ACHN renal) was 12.9 µM, the TGI (IGROV1 ovarian) was 30 µM and the TGI (SNB-19 CNS) was 31.5 µM. For the same compound, the TGI (UACC-62 melanoma) was 37.3 µM, the TGI (SK-MEL-28 melanoma) was > 65.9 µM and the TGI (K-562 leukemia) was > 23.3 µM. It also gave a TGI (SF-295 CNS) of 40.5 µM, a TGI (MDA-N) of 20.6 µM and a TGI (NCI-H226 lung) of 49.2 µM. For the same compound, the TGI (SF-268 CNS) was > 52.2 µM, the TGI (MOLT-4 leukemia) was > 31 µM and the TGI (MALME-3M melanoma) was 3.52 µM. It also gave a TGI (MDA-MB-435) of 44.4 µM, a TGI (SNB-75 CNS) of 29.2 µM and a TGI (KM12 colon) of 36 µM. The TGI (OVCAR-4 ovarian) was 20.8 µM, the TGI (T-47D breast) was 29.5 µM and the TGI (SN12C renal) was 29.5 µM. It also gave a TGI (OVCAR-3 ovarian) of 26.9 µM, a TGI (SK-MEL-5 melanoma) of 26.4 µM and a TGI (HCT-15 colon) of 7.93 µM. The TGI (HCC-2998 colon) was 30.3 µM, the TGI (UACC-257 melanoma) was 34.8 µM and the TGI (TK-10 renal) was 24.1 µM. The TGI (SR leukemia) was > 20 µM, the TGI (NCI-H23 lung) was 27.6 µM and the TGI (UO-31 renal) was 27 µM. It also gave a TGI (COLO 205 colon) of 7.06 µM, a TGI (HCT-116 colon) of 22.2 µM and a TGI (HOP-62 NSCLC) of 32.8 µM. The TGI (SF-539 CNS) was 10.2 µM, the TGI (HT29 colon) was 25.9 µM and the TGI (M14 melanoma) was 25.2 µM. For the same compound, the TGI (MDA-MB-231 breast) was 36.6 µM, the TGI (HS 578T breast) was 38.5 µM and the TGI (MCF7 breast) was 9.84 µM. It also gave a TGI (SK-MEL-2 melanoma) of 37.6 µM, a TGI (LOX IMVI melanoma) of 19.7 µM and a TGI (PC-3 prostate) of 37.3 µM. The TGI (OVCAR-5 ovarian) was 25.3 µM, the TGI (786-0 renal) was 32 µM and the TGI (A498 renal) was 44.2 µM. It also gave a TGI (CCRF-CEM leukemia) of 2.96 µM, a TGI (HOP-92 NSCLC) of 16 µM and a TGI (NCI-H522 lung) of 4.13 µM. For the same compound, the TGI (DU-145 prostate) was 26.6 µM, the TGI (NCI/ADR-RES ovarian) was 76.8 µM and the TGI (SK-OV-3 ovarian) was > 83.6 µM. For the same compound, the TGI (SW-620 colon) was > 100 µM.
